Test results taken from patent US5496564A, “Suspendible composition and process for preparing the same” (Fujisawa Pharmaceutical Co., Ltd., priority 1990, dated 1996).

Assay: Absorption test by oral administration: concentration in whole blood
Type: in vivo
Conditions: cynomolgus monkey, cynomolgus monkeys (six), oral 0.32 mg/kg, aqueous suspension of Prescription 7 diluted to 0.064 mg/ml, average ± standard error, read-out: Conc. in whole blood
Experimental: The aqueous suspension obtained in Prescription 7 was used.
The oral agent mentioned above was diluted with purified water to have the concentration of FK 506 substance of 0.064 mg/ml. The resultant was orally administered to six cynomolgus monkeys (0.32 mg/kg).
The concentration of FK 506 substance in whole blood was measured 0.5, 1, 2, 4 and 6 hours after the administration in accordance with the aforesaid enzyme immunoassay.
The test results are represented by the average ± standard error.

concentration at 0.5 h (0.5 hours): 13.4 ± 9.88 ng/mL
concentration at 1 h (1 hour): 18.6 ± 9.36 ng/mL
concentration at 2 h (2 hours): 18.6 ± 9.89 ng/mL
concentration at 4 h (4 hours): 15.3 ± 7.77 ng/mL
concentration at 6 h (6 hours): 12.4 ± 9.33 ng/mL
SMILES: C=CCC1C=C(C)CC(C)CC(OC)C2OC(O)(C(=O)C(=O)N3CCCCC3C(=O)OC(C(C)=CC3CCC(O)C(OC)C3)C(C)C(O)CC1=O)C(C)CC2OC (centres unmarked) [FK 506 substance, 17-allyl-1,14-dihydroxy-12-[2-(4-hydroxy-3-methoxycyclohexyl)-1-methylvinyl]-23,25-dimethoxy-13,19,21,27-tetramethyl-11,28-dioxa-4-azatricyclo-[22.3.1.0^4,9]octacos-18-ene-2,3,10,16-tetraone]
